PubChem BioAssay AID504575 (Southern Research Specialized Biocontainment Screening …, 2011)

The compounds below were run on MAGI cell cytotoxicity, 2% serum (assay: MAGI cell cytotoxicity, X4 antiviral format, dose response, cytotoxicity control for HIV-1 antiviral lead project, CXCR4-tropic MAGI assay, 2% serum, set 2 (AID 504575)).

Structure (SMILES)	TC50 [µM]
Cc1c2c(=O)n(-c3nc4ccccc4s3)nc-2cc(O)n1CCc1cccs1	74.8
COc1ccc(Cn2c(O)cc3nn(-c4nc5ccccc5s4)c(=O)c-3c2C)cc1	41.1
COc1ccc(CCn2c(O)cc3nn(-c4nc5ccccc5s4)c(=O)c-3c2C)cc1	13.8
Cc1c2c(=O)n(-c3nc4ccccc4s3)nc-2cc(O)n1CCC(C)C	65
Cc1c2c(=O)n(-c3nc4ccccc4s3)nc-2cc(O)n1Cc1ccccc1Cl	32.9
Cc1c2c(=O)n(-c3nc4ccccc4s3)nc-2cc(O)n1CCc1ccc(O)cc1	20.5
COc1ccccc1Cn1c(O)cc2nn(-c3nc4ccccc4s3)c(=O)c-2c1C	43.2
